Columns and labels:
A549 = assay: Inhibitory concentration against growth of A549 lung carcinoma cell; format: functional, cell-based; settings: Homo sapiens
HeLa = assay: Inhibitory concentration against HeLa cell colony formation; Range is 15-20 uM; format: functional, cell-based; settings: Homo sapiens
[1] = biological target: Mitogen-activated protein kinase 1 (Homo sapiens, UniProt P28482); assay: Dissociation constant for ERK2 kinase
Sequence of Mitogen-activated protein kinase 1 (P28482 whole entry): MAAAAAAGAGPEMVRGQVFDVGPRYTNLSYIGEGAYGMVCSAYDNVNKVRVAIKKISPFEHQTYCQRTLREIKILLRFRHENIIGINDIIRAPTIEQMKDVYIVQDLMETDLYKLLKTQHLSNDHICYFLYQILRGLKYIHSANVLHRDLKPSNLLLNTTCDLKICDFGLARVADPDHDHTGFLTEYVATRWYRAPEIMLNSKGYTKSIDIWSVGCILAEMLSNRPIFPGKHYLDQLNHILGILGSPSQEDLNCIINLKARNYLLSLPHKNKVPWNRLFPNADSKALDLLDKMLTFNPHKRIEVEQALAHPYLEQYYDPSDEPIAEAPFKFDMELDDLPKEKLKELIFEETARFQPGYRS

Row | IC50 (A549) [µM] | IC50 (HeLa) [µM] | Kd [1] [µM] | Compound
1 | 15 | 20 | – | O=C(CCN1CCN(C/C=C/c2ccccc2)CC1)Nc1ccc(Cl)cc1
2 | 25 | 20 | 5 | CCOc1ccc(/C=C2\SC(=O)N(CCN)C2=O)cc1
3 | – | – | 5 | O=C(CSc1nc2ccccc2o1)Nc1ccc(-n2cnnn2)cc1

From ChEMBL document CHEMBL1145156, “Identification of novel extracellular signal-regulated kinase docking domain inhibitors” (J Med Chem, 2005)
